These results are taken from patent US7547439B1, “Tumor rejection antigens” (Ludwig Institute for Cancer Research, priority 1998, dated 2009).

“Also recorded” adds a separate entry of the source.

The subject of the experiment is LB1751-EBV cells. Briefly: Chromium release assay: lysis by CTL 447A/5 of peptide-sensitised LB1751-EBV cells. It is filed as cell-based, human. The conditions noted are these: for Lysis by CTL 447A/5 of peptide-pulsed LB1751-EBV cells pre-treated with anti-HLA-A2 mAb MA2.1: MA2.1 (1/5 dilution of hybridoma supernatant) during 51Cr-labeling, E/T 20, 4 h; for Lysis by CTL 447A/5 of LB1751-EBV cells incubated with peptide: peptide concentration as high as 10 μM. As for the experimental part: FIG. 4. […] (A) LB1751-EBV cells pulsed with peptides derived from MAGE-A10. Chiromium-labelled autologous EBV-transformed lymphoblastoid cells LB1751-EBV were pulsed for 30 min with peptides as indicated at various concentrations before addition of CTL 447A/5 at an E/T ratio of 20. Chromium release was measured after 4 h. (B) Enhancement by mAb MA2.1 of lysis of LB1751-EBV cells pulsed with MAGE-A10 peptides. LB1751-EBV cells were pre-treated with or without anti-HLA-A2 antibody MA2.1. The pre-treatment was performed by adding mAb MA2.1 during ^51Cr-labeling. Peptide sensitisation and chromium release assay were carried out as in (A).
FIG. 5. […] LB1751-EBVcells were pre-treated with or without anti-HLA-A2 antibody MA2. 1. Ab treatment and peptide sensitisation of the cells and chromium release assay were carried out as in FIG. 4.
In the amino acid sequence corresponding to the nucleotides 547-825 there are two nonapeptides, […] (codons 183-191 in the ORF) (SEQ. ID. NO. 46) and […] (254-262) (SEQ. ID. NO. 42), which conform to the HLA-A2.1 peptide binding motif, i.e., a nona- or decapeptide with Leu or Met at position 2 and Leu, Val or Ile at its C-terminus (Rammensee, H. G., et al., 1995, Immunogenetics, 41:178-228). These two peptides and their overlapping decapeptides were synthesised on solid phase using F-moc for transient NH2-terminal protection and characterised by mass spectrometry. The peptides were >90% pure, as indicated by analytical HPLC, and used to sensitise autologous lymphoblastoid cell line LB1751-EBV in a chromium release assay as described in (Boon, T., et al., 1980, J. Exp. Med 152:1184-1193) but modified as follows. The target cells were ^51Cr-labeled for 1 h at 37° C. and then washed extensively. 1,000 target cells were then incubated in 96-well microplates in the presence of various concentrations of peptides for 30 min at 37° C. and CTLs were added at an E/T ratio of 20. Chromium release was measured after 4 h at 37° C.
Enhancement of peptide binding to the HLA-A2 molecule was achieved by incubation of target cells during ^51Cr-labeling with a ⅕ dilution of hybridoma culture supernatant of mAb MA2.1 (McMichael, A. J., et al., 1980, Hum. Immunol. 1:121-129; and Bodmer, H., et al., 1989, Nature 342:443-446).
This peptide and its overlapping decapeptide […] (codons 232-241) (SEQ. ID. NO. 45) were synthesised by the technique described above. LB1751-EVB cells incubated with either of the peptides, at a concentration of as high as 10 μM peptide, were not lysed by CTL 447A/5. […] Enhancement of peptide binding to the HLA-A2 molecule was achieved by incubation of target cells during ^51Cr-labeling with a ⅕ dilution of hybridoma culture supernatant of mAb MA2.1 (McMichael, A. J., et al., 1980, Hum. Immunol. 1: 121-129; and Bodmer, H., et al., 1989, Nature 342.443-446).

Where [1] appears, read: cells pulsed 30 min with peptide at various concentrations, E/T ratio 20, chromium release after 4 h, no mAb MA2.1.

On to “GLYDGMEHLI (listed as Homo sapiens) [decapeptide encoded by MAGE-A10 (254-263)]”, for which the “Lysis by CTL 447A/5 of peptide-pulsed LB1751-EBV cells pre-treated with anti-HLA-A2 mAb MA2.1” value (“Lysis … with anti-HLA-A2 mAb MA2.1” below) is “significantly increased sensitivity to lysis”. Moreover, under setting [1], the “Sensitisation of LB1751-EBV cells to lysis by CTL 447A/5” value (“Sensitisation of LB1751-EBV cells” below) was “less efficiently”.

Consider “CMLLVFGIDV (listed as Homo sapiens) [decapeptide from MAGE-A10 (182-191)]”, for which the “Lysis … with anti-HLA-A2 mAb MA2.1” value is on record as “failed to confer recognition”. For the same sequence, the “Sensitisation of LB1751-EBV cells” value under setting [1] was “failed to confer recognition”.

With “GLYDGREHS (listed as Homo sapiens) [nonapeptide encoded by MAGE-A8 (codons 232-240)]”, the “Lysis … with anti-HLA-A2 mAb MA2.1” value is given as “enhancement of lysis” and the “Lysis by CTL 447A/5 of LB1751-EBV cells incubated with peptide” value is recorded as “not lysed”. Also, for the setting “peptide concentration 100 μM”, the “Sensitisation of LB1751-EBV cells” value is “did sensitise LB1751-EBV cells to lysis”.

Take “MLLVFGIDV [nonapeptide from MAGE-A10 (codons 183-191)]”: the “Lysis … with anti-HLA-A2 mAb MA2.1” value is “failed to confer recognition”. Further, the “Sensitisation of LB1751-EBV cells” value under setting [1] is on record as “failed to confer recognition”.

On to “GLYDGREHSV (listed as Homo sapiens) [decapeptide encoded by MAGE-A8 (codons 232-241)]”, for which the “Lysis … with anti-HLA-A2 mAb MA2.1” value is “not” and the “Lysis by CTL 447A/5 of LB1751-EBV cells incubated with peptide” value is on record as “not lysed”.

For the sequence “GLYDGMEHL (listed as Homo sapiens) [nonapeptide encoded by MAGE-A10 (codons 254-262), presented by HLA-A2]”, the “Lysis … with anti-HLA-A2 mAb MA2.1” value is given as “significantly increased sensitivity to lysis”. Under setting [1], the “Sensitisation of LB1751-EBV cells” value is “could sensitise LB1751-EBV cells to lysis; also recorded: recognises”.
